Drawing on PubChem BioAssay AID588634 (Broad Institute, 2011), this text covers AC50 and activity change, negative = toxicity for 33 compounds.

One may read the AC50 as the concentration giving half of the maximal activity seen.

Activity calls are given as the source filed them.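 Rule for the calls: active = compounds whose fitted half-maximal toxic concentration is no more than twice their top tested dose; inconclusive = flat fit with 30 to 70% signal loss, or poor fit; inactive = the rest.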

The first test deals with NIH-3T3 fibroblast viability, Alamar Blue fluorescence, 48 h. The experiment in a line: mammalian cell viability loss – Alamar Blue, cherry-pick, cytotoxicity control for antifungal single agent project, dose response (AID 588634).
Settings: not given
A general note: Resazurin is reduced to fluorescent resorufin, in cell work by metabolically active cells.
On to `CN1CCN(C(c2ccc(C(F)(F)F)cc2)c2cc(Cl)c3cccnc3c2O)CC1` (stereo not drawn), for which the AC50 was 1960 nM. On the same count and under the same terms, then `COc1cccc(N=Nc2ccc3cccnc3c2O)c1`, with 712 nM; and `CCCCC(=O)NC(c1ccco1)c1cc(Cl)c2cccnc2c1O` (stereo not drawn), with 705 nM; and `Oc1ccc(N=Nc2ccc3c(c2)OCCO3)c2ncccc12`, with 702 nM. On the same count and under the same terms, then `O=Cc1ccc(O)c2ncccc12`, with 913 nM; and `CCCCC(=O)NC(c1ccc(Cl)cc1)c1ccc2cccnc2c1O` (stereo not drawn), with 1090 nM. Still for that read-out and setting: to `Cc1cc(NC(c2ccc(Cl)cc2)c2ccc3cccnc3c2O)no1` (stereo not drawn) belongs 3660 nM.

Turning to `O=Nc1c(-c2cccc([N+](=O)[O-])c2)nc2ncccn12`, the AC50 is 9990 nM.

As for `COc1cccc(/C=N/Nc2ncnc3scc(-c4ccccc4)c23)c1O`, the AC50 was 2070 nM. The same measure, in the same setting: to `COc1cccc(N=Nc2ccc(O)c3ncccc23)c1` belongs 279 nM. For `Oc1ccc(N=Nc2ccc3c(c2)OCCO3)c2cccnc12`, the AC50 was 3140 nM. On the same count and under the same terms, then `O=c1ccc(N=Nc2ccccc2)ccc1O`, with 1600 nM; and `O=C(Oc1c(Cl)cc(Cl)c2cccnc12)c1cccs1`, with 659 nM; and `CCCCC(=O)NC(c1ccc(N(CC)CC)cc1)c1ccc2cccnc2c1O` (stereo not drawn), with 1250 nM. As for `CN1CCN(C(c2ccc(C(F)(F)F)cc2)c2ccc3cccnc3c2O)CC1` (stereo not drawn), the AC50 was 852 nM. Same read-out and setting: then `CCOc1ccc(N=Nc2ccc(O)c3ncccc23)cc1`, with 289 nM; and `Oc1c(C(c2ccc(Cl)cc2)N2CCCC2)cc(Cl)c2cccnc12` (stereo not drawn), with 1470 nM. As for `Oc1c(CN2CCN(c3ccc(F)cc3)CC2)cc(Cl)c2cccnc12`, the AC50 was 1290 nM. `CCN(CC)S(=O)(=O)c1cc(OC)ccc1N=Nc1ccc(O)c2ncccc12`: the AC50 is 753 nM. For `Oc1c(C(Nc2nc3ccccc3s2)c2ccco2)ccc2cccnc12` (stereo not drawn), the AC50 was 1850 nM. On to `O=[N+]([O-])c1cc(CN2CCN(c3ccccc3)CC2)c(O)c2ncccc12`, for which the AC50 was 109 nM.

Turning to `O=[N+]([O-])c1ccc(O)c(/C=N/Nc2ccc(Cl)nn2)c1`, the AC50 is 1600 nM. Same read-out and setting: then `Oc1c(C(Nc2nccs2)c2ccc(C(F)(F)F)cc2)ccc2cccnc12` (stereo not drawn), with 1740 nM. On to `O=C(N/N=C/c1cc2c3c(c1O)CCCN3CCC2)c1ccccc1O`, for which the AC50 was 6370 nM. Consider `COc1ccc(C)cc1N=Nc1ccc(O)c2ncccc12`, for which the concentration at half-maximal activity (AC50) was 303 nM. As to `Cc1ccc(C(=O)c2coc3c2C(=O)C(=O)c2ccccc2-3)cc1`, the AC50 was 8170 nM. On to `O=C(Oc1c(Cl)cc(Cl)c2cccnc12)c1ccco1`, for which the AC50 was 409 nM. Still for that read-out and setting: then `Oc1c(CN2CCN(c3ccccc3)CC2)cc(Br)c2cccnc12`, with 1390 nM; and `C/C(=N\NC(=O)c1cc2ccccc2cc1O)c1ccccn1`, with 1040 nM. Consider `O=C(N/N=C/c1c(O)ccc2ccccc12)c1cccc(C(F)(F)F)c1`, for which the AC50 is 4340 nM.

Tested on in another test: not listed separately
The test is described as above. As to conditions: NIH-3T3 fibroblast viability, Alamar Blue fluorescence, 48 h; at 26 µM (top of the series).
In the case of `CCN1/C(=C/C=C/c2oc3ccc(-c4ccccc4)cc3[n+]2CC)Oc2ccc(-c3ccccc3)cc21`, the activity change, negative = toxicity was 360% (inactive). Consider `CCOC(=O)N1C(=O)C2(CCCCC2)N(c2ccc(C)cc2)C1=S`, for which the activity change, negative = toxicity is -0.005% (inactive). Same read-out and setting: then `C(C#CCCCCCCCCC[n+]1ccccc1)#CCCCCCCCCC[n+]1ccccc1`, with -33.3% (inactive).
